Results from patent publication US3955959A, “Herbicide for use in transplanted rice” (priority 1974, dated 1976).

Key:
Experiment in all cases: Example 6 weed control, JAAPR, Japan
Format in all cases: in vivo
[1] = test system: Ec (Echinochloa crusgalli)
Experimental: (§1) In this example, the efficacy of Herbicide A is presented for a variety of weeds in the presence of ordinary and infant transplant rice. In this example, tests were conducted at the said JAAPR Lab at different times of the year. "Early season" transplants were made in April and "Normal season" transplants were made in July. The size of the transplants at the respective seasons were: Season Seedling Type Plant Height (cm) Leaf Stage ______________________________________ Early Ordinary 16.5 4.5 Early Infant 9.1 2.4 Normal Ordinary 41.7 5.3 Normal Infant 14.7 1.9 ______________________________________
(§2) Duplicate treatments were used. At the time of application of the herbicide, the status of the grass (EC) was as follows: […]

Lp (Lindernia pyxidaria) = test system: Lp (Lindernia pyxidaria)
Experimental: as §1, §2

[2] = test system: Mv (Monochoria vaginalis)
Experimental: as §1, §2

Et (Elatine triandra) = test system: Et (Elatine triandra)
Experimental: as §1, §2

Ri (Rotala indica) = test system: Ri (Rotala indica)
Experimental: as §1, §2

Sp (Sagittaria pygmaea) = conditions: Normal season
Experimental: as §1, §2

Cd (Cyperus difformis) = test system: Cd (Cyperus difformis)
Experimental: as §1, §2

[3] = test system: Ea (Eleocharis acicularis)
Experimental: as §1, §2

[4] = Early season, ordinary, 1.0 kg/ha, 3 DAT
[5] = Early season, ordinary, 1.0 kg/ha, 12 DAT
[6] = Early season, ordinary, 1.0 kg/ha, -2 DAT
[7] = Early season, ordinary, .5 kg/ha, 3 DAT
[8] = Early season, ordinary, .5 kg/ha, 12 DAT
[9] = Early season, ordinary, .5 kg/ha, -2 DAT
[10] = Normal season, infant, 1.0 kg/ha, 3 DAT
[11] = Normal season, infant, 1.0 kg/ha, 7 DAT
[12] = Normal season, infant, 1.0 kg/ha, -2 DAT
[13] = Normal season, infant, .5 kg/ha, 3 DAT
[14] = Normal season, infant, .5 kg/ha, 7 DAT
[15] = Normal season, infant, .5 kg/ha, -2 DAT
[16] = Normal season, ordinary, 1.0 kg/ha, 3 DAT
[17] = Normal season, ordinary, 1.0 kg/ha, 7 DAT
[18] = Normal season, ordinary, 1.0 kg/ha, -2 DAT
[19] = Normal season, ordinary, .5 kg/ha, 3 DAT
[20] = Normal season, ordinary, .5 kg/ha, 7 DAT
[21] = Normal season, ordinary, .5 kg/ha, -2 DAT

CCCCOCN(C(=O)CCl)c1c(C)cccc1C(C)(C)C [Herbicide A, n-(butoxymethyl)-6'-tert-butyl-2-chloro-o-acetotoluidide]
70%: % Weed Control (Mv) [2, 14] | % Weed Control (Et) (Et (Elatine triandra); [5]) | % Weed Control (Et) (Et (Elatine triandra); [7])
< 40%: % Weed Control (Et) (Et (Elatine triandra); [8]) | % Weed Control (Sp) (Sp (Sagittaria pygmaea); infant, 1.0 kg/ha, 3 DAT) | % Weed Control (Sp) (Sp (Sagittaria pygmaea); infant, 1.0 kg/ha, 7 DAT) | % Weed Control (Sp) (Sp (Sagittaria pygmaea); infant, 1.0 kg/ha, -2 DAT) | % Weed Control (Sp) (Sp (Sagittaria pygmaea); infant, .5 kg/ha, 3 DAT) | % Weed Control (Sp) (Sp (Sagittaria pygmaea); infant, .5 kg/ha, 7 DAT) | % Weed Control (Sp) (Sp (Sagittaria pygmaea); infant, .5 kg/ha, -2 DAT) | % Weed Control (Sp) (Sp (Sagittaria pygmaea); ordinary, 1.0 kg/ha, 3 DAT) | % Weed Control (Sp) (Sp (Sagittaria pygmaea); ordinary, 1.0 kg/ha, 7 DAT) | % Weed Control (Sp) (Sp (Sagittaria pygmaea); ordinary, 1.0 kg/ha, -2 DAT) | % Weed Control (Sp) (Sp (Sagittaria pygmaea); ordinary, .5 kg/ha, 3 DAT) | % Weed Control (Sp) (Sp (Sagittaria pygmaea); ordinary, .5 kg/ha, 7 DAT) | % Weed Control (Sp) (Sp (Sagittaria pygmaea); ordinary, .5 kg/ha, -2 DAT)
100%: % Weed Control (Ec) [1, 4] | % Weed Control (Ec) [1, 5] | % Weed Control (Ec) [1, 6] | % Weed Control (Ec) [1, 7] | % Weed Control (Ec) [1, 8] | % Weed Control (Ec) [1, 9] | % Weed Control (Ec) [1, 10] | % Weed Control (Ec) [1, 11] | % Weed Control (Ec) [1, 12] | % Weed Control (Ec) [1, 13] | % Weed Control (Ec) [1, 14] | % Weed Control (Ec) [1, 15] | % Weed Control (Ec) [1, 16] | % Weed Control (Ec) [1, 17] | % Weed Control (Ec) [1, 18] | % Weed Control (Ec) [1, 19] | % Weed Control (Ec) [1, 21] | % Weed Control (Lp) (Lp (Lindernia pyxidaria); [4]) | % Weed Control (Lp) (Lp (Lindernia pyxidaria); [6]) | % Weed Control (Lp) (Lp (Lindernia pyxidaria); [7]) | % Weed Control (Lp) (Lp (Lindernia pyxidaria); [9]) | % Weed Control (Lp) (Lp (Lindernia pyxidaria); [10]) | % Weed Control (Lp) (Lp (Lindernia pyxidaria); [11]) | % Weed Control (Lp) (Lp (Lindernia pyxidaria); [12]) | % Weed Control (Lp) (Lp (Lindernia pyxidaria); [13]) | % Weed Control (Lp) (Lp (Lindernia pyxidaria); [14]) | % Weed Control (Lp) (Lp (Lindernia pyxidaria); [15]) | % Weed Control (Lp) (Lp (Lindernia pyxidaria); [16]) | % Weed Control (Lp) (Lp (Lindernia pyxidaria); [17]) | % Weed Control (Lp) (Lp (Lindernia pyxidaria); [18]) | % Weed Control (Lp) (Lp (Lindernia pyxidaria); [19]) | % Weed Control (Lp) (Lp (Lindernia pyxidaria); [20]) | % Weed Control (Lp) (Lp (Lindernia pyxidaria); [21]) | % Weed Control (Mv) [2, 4] | % Weed Control (Mv) [2, 6] | % Weed Control (Mv) [2, 10] | % Weed Control (Mv) [2, 12] | % Weed Control (Mv) [2, 13] | % Weed Control (Mv) [2, 15] | % Weed Control (Mv) [2, 16] | % Weed Control (Mv) [2, 17] | % Weed Control (Mv) [2, 18] | % Weed Control (Mv) [2, 19] | % Weed Control (Mv) [2, 21] | % Weed Control (Et) (Et (Elatine triandra); [10]) | % Weed Control (Et) (Et (Elatine triandra); [11]) | % Weed Control (Et) (Et (Elatine triandra); [12]) | % Weed Control (Et) (Et (Elatine triandra); [13]) | % Weed Control (Et) (Et (Elatine triandra); [14]) | % Weed Control (Et) (Et (Elatine triandra); [15]) | % Weed Control (Et) (Et (Elatine triandra); [16]) | % Weed Control (Et) (Et (Elatine triandra); [17]) | % Weed Control (Et) (Et (Elatine triandra); [18]) | % Weed Control (Et) (Et (Elatine triandra); [19]) | % Weed Control (Et) (Et (Elatine triandra); [20]) | % Weed Control (Et) (Et (Elatine triandra); [21]) | % Weed Control (Ri) (Ri (Rotala indica); [4]) | % Weed Control (Ri) (Ri (Rotala indica); [5]) | % Weed Control (Ri) (Ri (Rotala indica); [6]) | % Weed Control (Ri) (Ri (Rotala indica); [7]) | % Weed Control (Ri) (Ri (Rotala indica); [8]) | % Weed Control (Ri) (Ri (Rotala indica); [9]) | % Weed Control (Ri) (Ri (Rotala indica); [10]) | % Weed Control (Ri) (Ri (Rotala indica); [11]) | % Weed Control (Ri) (Ri (Rotala indica); [12]) | % Weed Control (Ri) (Ri (Rotala indica); [13]) | % Weed Control (Ri) (Ri (Rotala indica); [14]) | % Weed Control (Ri) (Ri (Rotala indica); [15]) | % Weed Control (Ri) (Ri (Rotala indica); [16]) | % Weed Control (Ri) (Ri (Rotala indica); [17]) | % Weed Control (Ri) (Ri (Rotala indica); [18]) | % Weed Control (Ri) (Ri (Rotala indica); [19]) | % Weed Control (Ri) (Ri (Rotala indica); [20]) | % Weed Control (Ri) (Ri (Rotala indica); [21]) | % Weed Control (Cd) (Cd (Cyperus difformis); [4]) | % Weed Control (Cd) (Cd (Cyperus difformis); [5]) | % Weed Control (Cd) (Cd (Cyperus difformis); [6]) | % Weed Control (Cd) (Cd (Cyperus difformis); [7]) | % Weed Control (Cd) (Cd (Cyperus difformis); [8]) | % Weed Control (Cd) (Cd (Cyperus difformis); [9]) | % Weed Control (Cd) (Cd (Cyperus difformis); [10]) | % Weed Control (Cd) (Cd (Cyperus difformis); [11]) | % Weed Control (Cd) (Cd (Cyperus difformis); [12]) | % Weed Control (Cd) (Cd (Cyperus difformis); [13]) | % Weed Control (Cd) (Cd (Cyperus difformis); [14]) | % Weed Control (Cd) (Cd (Cyperus difformis); [15]) | % Weed Control (Cd) (Cd (Cyperus difformis); [16]) | % Weed Control (Cd) (Cd (Cyperus difformis); [17]) | % Weed Control (Cd) (Cd (Cyperus difformis); [18]) | % Weed Control (Cd) (Cd (Cyperus difformis); [19]) | % Weed Control (Cd) (Cd (Cyperus difformis); [20]) | % Weed Control (Cd) (Cd (Cyperus difformis); [21]) | % Weed Control (Ea) [3, 4] | % Weed Control (Ea) [3, 5] | % Weed Control (Ea) [3, 6] | % Weed Control (Ea) [3, 7] | % Weed Control (Ea) [3, 8] | % Weed Control (Ea) [3, 9] | % Weed Control (Ea) [3, 10] | % Weed Control (Ea) [3, 11] | % Weed Control (Ea) [3, 12] | % Weed Control (Ea) [3, 13] | % Weed Control (Ea) [3, 14] | % Weed Control (Ea) [3, 15] | % Weed Control (Ea) [3, 16] | % Weed Control (Ea) [3, 17] | % Weed Control (Ea) [3, 18] | % Weed Control (Ea) [3, 19] | % Weed Control (Ea) [3, 20] | % Weed Control (Ea) [3, 21]
95%: % Weed Control (Ec) [1, 20] | % Weed Control (Lp) (Lp (Lindernia pyxidaria); [5]) | % Weed Control (Mv) [2, 5] | % Weed Control (Mv) [2, 7] | % Weed Control (Mv) [2, 8] | % Weed Control (Mv) [2, 9] | % Weed Control (Mv) [2, 20] | % Weed Control (Et) (Et (Elatine triandra); [4]) | % Weed Control (Et) (Et (Elatine triandra); [6]) | % Weed Control (Et) (Et (Elatine triandra); [9])
85%: % Weed Control (Lp) (Lp (Lindernia pyxidaria); [8]) | % Weed Control (Mv) [2, 11]
